Assay results published in patent publication US20160235752A1, “COMPOSITIONS, METHODS OF USE, AND METHODS OF TREATMENT” (THE UNIVERSITY OF NEW ORLEANS, priority 2013, published 2016).
≈ marks a conversion by molar mass, not a printed value.

Tests used:
[1] = tested on: Candida albicans (ATCC no. 10231); assay: MIC determination by broth microdilution (NCCLS), visual scoring; assay type: cell-based; settings: for MIC80: Candida albicans, ATCC10231, read-out: MIC80 C. albicans
In short: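 NCCLS broth microdilution in RPMI 1640 with 10 mM HEPES, final compound 0.5–128 μg/mL, DMSO ≤1%. Inoculum from 0.5 McFarland stock diluted 1:50; incubated 35 °C for 48–72 h. MIC scored visually as lowest concentration giving ~80% growth reduction versus drug-free wells.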

[2] = tested on: Candida glabrata (ATCC no. 48435); assay: as above; assay type: cell-based; settings: for MIC80: Nakaseomyces glabratus, ATCC48435, read-out: MIC80 C. glabrata
[3] = Table 4, 5,5-Dialkylated Pyrimidinetriones
[4] = Table 8, N-Acylhydrazones of 5-Acylpyrimidinetriones
[5] = Table 5, Schiff Bases of 5-acylpyrimidinetriones

| Compound | MIC80 C. albicans [1, 5] | MIC80 C. glabrata [2, 5] | further results |
| --- | --- | --- | --- |
| CN(C)c1ccc(CC2(Cc3ccc(N(C)C)cc3)C(=O)NC(=O)NC2=O)cc1 [BA71] | – | – | MIC80 C. albicans [1, 3]: — (none of the 5-acyl-2,4,6-pyrimidinetriones, 5-alkylated pyrimidinetriones or the 5,5-dialkylated pyrimidinetriones showed antifungal activity through 125 μg/mL); MIC80 C. glabrata [2, 3]: — (none of the 5-acyl-2,4,6-pyrimidinetriones, 5-alkylated pyrimidinetriones or the 5,5-dialkylated pyrimidinetriones showed antifungal activity through 125 μg/mL) |
| CN(C)c1ccc(CC2(CCCc3ccccc3)C(=O)NC(=O)NC2=O)cc1 [BA72] | – | – | MIC80 C. albicans [1, 3]: — (none of the 5-acyl-2,4,6-pyrimidinetriones, 5-alkylated pyrimidinetriones or the 5,5-dialkylated pyrimidinetriones showed antifungal activity through 125 μg/mL); MIC80 C. glabrata [2, 3]: — (none of the 5-acyl-2,4,6-pyrimidinetriones, 5-alkylated pyrimidinetriones or the 5,5-dialkylated pyrimidinetriones showed antifungal activity through 125 μg/mL) |
| CN1C(=O)C(/C=N/Nc2ccccc2)C(=O)N(C)C1=O [BA73, 1,3-dimethyl-5-[(E)-(2-phenylhydrazinylidene)methyl]pyrimidine-2,4,6-trione] | – | – | MIC80 [1]: 4 µg/mL (≈ 14.6 µM); MIC80 [2]: 2 µg/mL (≈ 7.29 µM) |
| O=C1NC(=O)C(/C=N/Nc2ccccc2)C(=O)N1 [BA74, 5-[(E)-(2-phenylhydrazinylidene)methyl]pyrimidine-2,4,6-trione] | – | – | MIC80 [1]: 4 µg/mL (≈ 16.2 µM); MIC80 [2]: 2 µg/mL (≈ 8.12 µM) |
| COC(=O)NN=C(C)C1C(=O)N(C)C(=O)N(C)C1=O [BA75] | – | – | MIC80 C. albicans [1, 4]: — (none of the 5-acyl-2,4,6-pyrimidinetriones, 5-alkylated pyrimidinetriones or the 5,5-dialkylated pyrimidinetriones showed antifungal activity through 125 μg/mL); MIC80 C. glabrata [2, 4]: — (none of the 5-acyl-2,4,6-pyrimidinetriones, 5-alkylated pyrimidinetriones or the 5,5-dialkylated pyrimidinetriones showed antifungal activity through 125 μg/mL) |
| COC(=O)NN=CC1C(=O)N(C)C(=O)N(C)C1=O [BA76] | – | – | MIC80 C. albicans [1, 4]: — (none of the 5-acyl-2,4,6-pyrimidinetriones, 5-alkylated pyrimidinetriones or the 5,5-dialkylated pyrimidinetriones showed antifungal activity through 125 μg/mL); MIC80 C. glabrata [2, 4]: — (none of the 5-acyl-2,4,6-pyrimidinetriones, 5-alkylated pyrimidinetriones or the 5,5-dialkylated pyrimidinetriones showed antifungal activity through 125 μg/mL) |
| COC(=O)NN=CC1C(=O)NC(=O)NC1=O [BA77] | – | – | MIC80 C. albicans [1, 4]: — (none of the 5-acyl-2,4,6-pyrimidinetriones, 5-alkylated pyrimidinetriones or the 5,5-dialkylated pyrimidinetriones showed antifungal activity through 125 μg/mL); MIC80 C. glabrata [2, 4]: — (none of the 5-acyl-2,4,6-pyrimidinetriones, 5-alkylated pyrimidinetriones or the 5,5-dialkylated pyrimidinetriones showed antifungal activity through 125 μg/mL) |
| CN1C(=O)C(C=Nc2ccc(O)cc2)C(=O)N(C)C1=O [BA79] | — (none of the 5-acyl-2,4,6-pyrimidinetriones, 5-alkylated pyrimidinetriones or the 5,5-dialkylated pyrimidinetriones showed antifungal activity through 125 μg/mL) | — (none of the 5-acyl-2,4,6-pyrimidinetriones, 5-alkylated pyrimidinetriones or the 5,5-dialkylated pyrimidinetriones showed antifungal activity through 125 μg/mL) | – |
| CC(=Nc1ccc(O)cc1)C1C(=O)N(C)C(=O)N(C)C1=O [BA80] | — (none of the 5-acyl-2,4,6-pyrimidinetriones, 5-alkylated pyrimidinetriones or the 5,5-dialkylated pyrimidinetriones showed antifungal activity through 125 μg/mL) | — (none of the 5-acyl-2,4,6-pyrimidinetriones, 5-alkylated pyrimidinetriones or the 5,5-dialkylated pyrimidinetriones showed antifungal activity through 125 μg/mL) | – |
| O=C1NC(=O)C(C=Nc2ccc(O)cc2)C(=O)N1 [BA81] | — (none of the 5-acyl-2,4,6-pyrimidinetriones, 5-alkylated pyrimidinetriones or the 5,5-dialkylated pyrimidinetriones showed antifungal activity through 125 μg/mL) | — (none of the 5-acyl-2,4,6-pyrimidinetriones, 5-alkylated pyrimidinetriones or the 5,5-dialkylated pyrimidinetriones showed antifungal activity through 125 μg/mL) | – |
| CN1C(=O)C(C=Nc2ccncc2)C(=O)N(C)C1=O [BA82] | — (none of the 5-acyl-2,4,6-pyrimidinetriones, 5-alkylated pyrimidinetriones or the 5,5-dialkylated pyrimidinetriones showed antifungal activity through 125 μg/mL) | — (none of the 5-acyl-2,4,6-pyrimidinetriones, 5-alkylated pyrimidinetriones or the 5,5-dialkylated pyrimidinetriones showed antifungal activity through 125 μg/mL) | – |
| O=C1NC(=O)C(C=Nc2ccncc2)C(=O)N1 [BA83] | — (none of the 5-acyl-2,4,6-pyrimidinetriones, 5-alkylated pyrimidinetriones or the 5,5-dialkylated pyrimidinetriones showed antifungal activity through 125 μg/mL) | — (none of the 5-acyl-2,4,6-pyrimidinetriones, 5-alkylated pyrimidinetriones or the 5,5-dialkylated pyrimidinetriones showed antifungal activity through 125 μg/mL) | – |
| CC(=Nc1ccncc1)C1C(=O)N(C)C(=O)N(C)C1=O [BA84] | — (none of the 5-acyl-2,4,6-pyrimidinetriones, 5-alkylated pyrimidinetriones or the 5,5-dialkylated pyrimidinetriones showed antifungal activity through 125 μg/mL) | — (none of the 5-acyl-2,4,6-pyrimidinetriones, 5-alkylated pyrimidinetriones or the 5,5-dialkylated pyrimidinetriones showed antifungal activity through 125 μg/mL) | – |
| C/C(=N\Nc1ccccc1)C1C(=O)NC(=O)NC1=O [BA85, 5-[(1E)-1-(2-phenylhydrazinylidene)ethyl]pyrimidine-2,4,6-trione] | – | – | MIC80 [1]: 2 µg/mL (≈ 7.68 µM); MIC80 [2]: 2 µg/mL (≈ 7.68 µM) |
| COC(=O)NN=C(C)C1C(=O)NC(=O)NC1=O [BA86] | – | – | MIC80 C. albicans [1, 4]: — (none of the 5-acyl-2,4,6-pyrimidinetriones, 5-alkylated pyrimidinetriones or the 5,5-dialkylated pyrimidinetriones showed antifungal activity through 125 μg/mL); MIC80 C. glabrata [2, 4]: — (none of the 5-acyl-2,4,6-pyrimidinetriones, 5-alkylated pyrimidinetriones or the 5,5-dialkylated pyrimidinetriones showed antifungal activity through 125 μg/mL) |
| CC(=Nc1ccc(O)cc1)C1C(=O)NC(=O)NC1=O [BA87] | — (none of the 5-acyl-2,4,6-pyrimidinetriones, 5-alkylated pyrimidinetriones or the 5,5-dialkylated pyrimidinetriones showed antifungal activity through 125 μg/mL) | — (none of the 5-acyl-2,4,6-pyrimidinetriones, 5-alkylated pyrimidinetriones or the 5,5-dialkylated pyrimidinetriones showed antifungal activity through 125 μg/mL) | – |
| CC(=Nc1ccncc1)C1C(=O)NC(=O)NC1=O [BA88] | — (none of the 5-acyl-2,4,6-pyrimidinetriones, 5-alkylated pyrimidinetriones or the 5,5-dialkylated pyrimidinetriones showed antifungal activity through 125 μg/mL) | — (none of the 5-acyl-2,4,6-pyrimidinetriones, 5-alkylated pyrimidinetriones or the 5,5-dialkylated pyrimidinetriones showed antifungal activity through 125 μg/mL) | – |
| O=C1NC(=O)C(C=Nc2ccccc2)C(=O)N1 [BA89] | — (none of the 5-acyl-2,4,6-pyrimidinetriones, 5-alkylated pyrimidinetriones or the 5,5-dialkylated pyrimidinetriones showed antifungal activity through 125 μg/mL) | — (none of the 5-acyl-2,4,6-pyrimidinetriones, 5-alkylated pyrimidinetriones or the 5,5-dialkylated pyrimidinetriones showed antifungal activity through 125 μg/mL) | – |
| CN1C(=O)C(C=Nc2ccccc2)C(=O)N(C)C1=O [BA90] | — (none of the 5-acyl-2,4,6-pyrimidinetriones, 5-alkylated pyrimidinetriones or the 5,5-dialkylated pyrimidinetriones showed antifungal activity through 125 μg/mL) | — (none of the 5-acyl-2,4,6-pyrimidinetriones, 5-alkylated pyrimidinetriones or the 5,5-dialkylated pyrimidinetriones showed antifungal activity through 125 μg/mL) | – |
| CC(=Nc1ccccc1)C1C(=O)N(C)C(=O)N(C)C1=O [BA91] | — (none of the 5-acyl-2,4,6-pyrimidinetriones, 5-alkylated pyrimidinetriones or the 5,5-dialkylated pyrimidinetriones showed antifungal activity through 125 μg/mL) | — (none of the 5-acyl-2,4,6-pyrimidinetriones, 5-alkylated pyrimidinetriones or the 5,5-dialkylated pyrimidinetriones showed antifungal activity through 125 μg/mL) | – |
| CC(=Nc1ccccc1)C1C(=O)NC(=O)NC1=O [BA92] | — (none of the 5-acyl-2,4,6-pyrimidinetriones, 5-alkylated pyrimidinetriones or the 5,5-dialkylated pyrimidinetriones showed antifungal activity through 125 μg/mL) | — (none of the 5-acyl-2,4,6-pyrimidinetriones, 5-alkylated pyrimidinetriones or the 5,5-dialkylated pyrimidinetriones showed antifungal activity through 125 μg/mL) | – |
| O=C1NC(=O)C(C=Nc2ccccc2O)C(=O)N1 [BA93] | – | — (none of the 5-acyl-2,4,6-pyrimidinetriones, 5-alkylated pyrimidinetriones or the 5,5-dialkylated pyrimidinetriones showed antifungal activity through 125 μg/mL) | inhibitory activity of Candida albicans ([1]; Schiff base derivatives, Table 5): showed inhibitory activity; MIC80 C. albicans ([1]; Table 5, values marked *: compound displayed MIC with <50% inhibition): 8* μg/mL |
